Results as given in PubChem BioAssay AID180 (DTP/NCI, 2004).

Tested on: BDF1 mice, Adenocarcinoma 755 s.c., tumor weight T/C
Test: NCI In Vivo Anticancer Drug Screen. Data for tumor model Adenocarcinoma 755 (subcutaneous) in B6D2F1 (BDF1) mice
Settings: endpoint: mean tumor weight, higher = larger tumour
Method: The antitumor activity of compounds was measured in mice bearing transplantable tumors. Survival or tumor size were measured and the results are expressed as the measurement made in the treated group (T) divided by the measurement made in the vehicle treated control group (C). The tumor model used in this assay is Adenocarcinoma 755 (subcutaneous) in B6D2F1 (BDF1) mice

Structure (SMILES) | T/C (dose: 62.0 mg/kg/injection, schedule: Q01DX011 (ip), vehicle: carboxymethylcellulose (CMC)) | T/C (dose: 125.0 mg/kg/injection, schedule: Q01DX011 (ip), vehicle: carboxymethylcellulose (CMC)) | T/C (dose: 188.0 mg/kg/injection, schedule: Q01DX011 (oral), vehicle: carboxymethylcellulose (CMC)) | T/C (dose: 250.0 mg/kg/injection, schedule: Q01DX011 (ip), vehicle: carboxymethylcellulose (CMC)) | T/C (dose: 376.0 mg/kg/injection, schedule: Q01DX011 (oral), vehicle: carboxymethylcellulose (CMC)) | T/C (dose: 500.0 mg/kg/injection, schedule: Q01DX011 (ip), vehicle: carboxymethylcellulose (CMC)) | T/C (dose: 752.0 mg/kg/injection, schedule: Q01DX011 (oral), vehicle: carboxymethylcellulose (CMC)) | T/C (dose: 30.0 mg/kg/injection, schedule: Q01DX011 (ip), vehicle: methylcellulose (MC)) | T/C (dose: 60.0 mg/kg/injection, schedule: Q01DX011 (ip), vehicle: methylcellulose (MC))
S=c1nc[nH]c2c1ncn2C1CCCCC1 | 117 % of control | 118 % of control | 154 % of control | 66 % of control | 104 % of control | 62 % of control | 87 % of control |  | 
C/C(=N\NC(=O)c1ccncc1)c1cc(Cl)ccc1Cl |  |  |  |  |  |  |  | 51 % of control | 27 % of control
